Measured values published in paper PMC12655426 (Pharmaceutics, 2025).
Where two headings read alike, the source gives them in different places.

Tests used:
Assay type in all cases: cell-based
human BCRP = target: T1, human BCRP (Homo sapiens, UniProt Q9UNQ0); test: Polyphenol modulation of BCRP-mediated OTA efflux in MDCK-II cells; design: host or cells: MDCK-II, transient plasmid transfection
T1 sequence (Q9UNQ0 1-655): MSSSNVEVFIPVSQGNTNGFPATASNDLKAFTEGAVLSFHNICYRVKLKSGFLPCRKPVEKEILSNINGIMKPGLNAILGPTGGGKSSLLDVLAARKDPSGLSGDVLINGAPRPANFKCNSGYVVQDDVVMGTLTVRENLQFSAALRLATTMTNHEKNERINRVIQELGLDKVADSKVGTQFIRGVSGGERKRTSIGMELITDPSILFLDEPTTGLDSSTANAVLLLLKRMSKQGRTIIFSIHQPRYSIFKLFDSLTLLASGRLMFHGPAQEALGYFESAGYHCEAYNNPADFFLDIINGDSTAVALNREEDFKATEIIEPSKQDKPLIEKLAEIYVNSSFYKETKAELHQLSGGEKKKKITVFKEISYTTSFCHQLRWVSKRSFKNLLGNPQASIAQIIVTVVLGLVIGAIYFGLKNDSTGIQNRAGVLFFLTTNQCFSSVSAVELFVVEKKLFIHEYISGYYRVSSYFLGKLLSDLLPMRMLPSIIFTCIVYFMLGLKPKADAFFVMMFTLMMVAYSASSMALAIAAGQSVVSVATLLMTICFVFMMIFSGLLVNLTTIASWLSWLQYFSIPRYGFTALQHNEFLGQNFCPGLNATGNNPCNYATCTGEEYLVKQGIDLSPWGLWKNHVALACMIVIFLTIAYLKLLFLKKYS
Experimental: The concentrations of polyphenols tested were as follows: ECG and miquelianin: 100, 200, 400, 600, 800, 1000 μM; caffeic acid: 50, 100, 500, 1000, 5000, 10,000 μM; luteolin: 0.1, 1, 10, 20, 25, 40, 50, 60, 100, 150 μM; myricetin: 5, 10, 50, 100, 250, 500, 650, 750, 850, 1000 μM. All other assay conditions were as described above. Transport activity was expressed as percent of vehicle control and fitted to a four-parameter logistic model to obtain half-maximal inhibitory concentration (IC50) values (for inhibition) or half-maximal effective concentration (EC50) values (for activation). Three independent experiments, each with technical triplicate, were performed for every compound.
(§1) A p-value < 0.05 was considered statistically significant. For the estimation of IC50 or EC50 values, transport activity data were fitted with the following four-parameter logistic models: V=Bottom+Top−Bottom/1+I/IC50^h for inhibitors V=Bottom+[I]^h×(Top−Bottom)/[I]^h+EC50^h for activators where V is transport activity expressed as a percentage of vehicle control, [I] is inhibitor (or activator) concentration, Top and Bottom are the asymptotic plateaus, IC50 or EC50 is the concentration producing half-maximal inhibition (or activation), and h is the Hill slope. All data analyses were performed using GraphPad Prism version 10.2.3 (GraphPad). Parameter estimates are reported as best-fit ± standard error from three independent experiments, each run in technical triplicate.

human OAT1 = target: T2, human OAT1 (Homo sapiens, UniProt Q4U2R8); test: Polyphenol inhibition of OAT1-mediated OTA uptake in HEK293 cells; settings: for OTA uptake, fraction of vehicle control: polyphenol 10 μM, 300 nM OTA, 5 min
T2 construct: host or cells: HEK293, stably transfected
T2 sequence (Q4U2R8 1-563): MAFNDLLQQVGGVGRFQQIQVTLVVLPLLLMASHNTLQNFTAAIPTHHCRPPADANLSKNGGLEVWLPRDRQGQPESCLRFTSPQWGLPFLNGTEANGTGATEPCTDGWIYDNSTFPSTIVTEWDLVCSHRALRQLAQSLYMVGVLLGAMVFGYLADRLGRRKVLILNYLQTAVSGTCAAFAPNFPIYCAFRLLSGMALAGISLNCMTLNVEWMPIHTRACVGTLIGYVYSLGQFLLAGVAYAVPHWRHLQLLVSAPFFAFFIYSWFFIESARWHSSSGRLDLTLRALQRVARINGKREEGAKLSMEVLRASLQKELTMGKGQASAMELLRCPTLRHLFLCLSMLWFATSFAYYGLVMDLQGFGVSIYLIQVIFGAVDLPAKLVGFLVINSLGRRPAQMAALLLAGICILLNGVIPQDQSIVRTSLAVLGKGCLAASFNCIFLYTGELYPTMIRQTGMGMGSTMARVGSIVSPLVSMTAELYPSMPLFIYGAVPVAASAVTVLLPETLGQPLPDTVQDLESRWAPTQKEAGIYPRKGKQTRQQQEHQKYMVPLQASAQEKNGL
Experimental: (§2) Because OATP1A2 is expressed at exceptionally low levels in the apical membrane of the kidney as well as in the liver and intestine, interaction studies focused on OAT1, OAT3, OAT4, and BCRP as these will have a greater impact on circulating polyphenol levels. […] Uptake assays were performed in three independent experiments, each in technical triplicate.
as §1

OAT3 = target: T3, OAT3 (Homo sapiens, UniProt Q8TCC7); test: Polyphenol inhibition of OAT3-mediated OTA uptake in HEK293 cells; design: host or cells: HEK293, stably transfected; settings: for OTA uptake, fraction of vehicle control: polyphenol 10 μM, 300 nM OTA, 5 min
T3 sequence (Q8TCC7 1-542): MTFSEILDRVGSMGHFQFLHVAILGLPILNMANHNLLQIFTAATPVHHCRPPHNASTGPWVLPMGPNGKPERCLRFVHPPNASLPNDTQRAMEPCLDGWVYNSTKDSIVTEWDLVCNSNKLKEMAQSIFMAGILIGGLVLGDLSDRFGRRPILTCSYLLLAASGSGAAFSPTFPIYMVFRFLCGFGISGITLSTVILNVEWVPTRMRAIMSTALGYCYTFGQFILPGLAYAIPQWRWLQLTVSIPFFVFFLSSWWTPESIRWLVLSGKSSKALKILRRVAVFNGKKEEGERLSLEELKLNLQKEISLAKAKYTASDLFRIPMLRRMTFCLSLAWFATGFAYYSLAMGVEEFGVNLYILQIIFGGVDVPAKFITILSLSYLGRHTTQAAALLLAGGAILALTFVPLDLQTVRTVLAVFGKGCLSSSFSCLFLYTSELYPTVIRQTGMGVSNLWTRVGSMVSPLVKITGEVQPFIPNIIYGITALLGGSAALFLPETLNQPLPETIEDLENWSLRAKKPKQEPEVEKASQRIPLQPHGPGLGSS
Experimental: as §2, §1

OAT4 = target: T4, OAT4 (Homo sapiens, UniProt Q9NSA0); test: Polyphenol inhibition of OAT4-mediated OTA uptake in HEK293 cells; design: host or cells: HEK293, stably transfected; settings: polyphenol 10 μM, 300 nM OTA, 5 min
T4 sequence (Q9NSA0 1-550): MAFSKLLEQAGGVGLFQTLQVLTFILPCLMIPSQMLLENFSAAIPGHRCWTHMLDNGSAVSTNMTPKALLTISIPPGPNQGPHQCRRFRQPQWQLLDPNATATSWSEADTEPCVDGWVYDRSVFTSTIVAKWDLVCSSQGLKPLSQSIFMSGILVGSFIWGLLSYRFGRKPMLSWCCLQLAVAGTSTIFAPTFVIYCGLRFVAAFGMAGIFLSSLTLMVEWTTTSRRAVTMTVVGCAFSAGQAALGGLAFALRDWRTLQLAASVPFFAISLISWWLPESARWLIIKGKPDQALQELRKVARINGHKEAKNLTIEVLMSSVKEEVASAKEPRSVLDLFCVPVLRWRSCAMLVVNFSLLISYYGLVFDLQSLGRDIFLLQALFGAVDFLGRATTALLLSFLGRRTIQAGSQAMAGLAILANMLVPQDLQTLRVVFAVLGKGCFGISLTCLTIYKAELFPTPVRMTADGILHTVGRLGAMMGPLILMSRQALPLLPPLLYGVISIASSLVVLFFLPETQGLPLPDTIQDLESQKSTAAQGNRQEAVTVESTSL
Experimental: as §2, §1

| Molecule | IC50 (human BCRP) [µM] | decrease of OAT1-mediated OTA uptake (human OAT1; 10 µM) [%] | OTA uptake, fraction of vehicle control (human OAT1) | decrease of OAT3-mediated OTA uptake (OAT3; 10 µM) [%] | OTA uptake, fraction of vehicle control (OAT3) | OTA uptake, fraction of vehicle control (OAT4) | effect on BCRP-mediated OTA transport (human BCRP; 300 nM OTA, 100 to 1000 μM) | IC50 (human BCRP; read-out: IC50, inhibition of BCRP-mediated OTA transport, 300 nM OTA, efflux ratio as % of vehicle control) [µM] | EC50 (human BCRP) [µM] | maximal stimulation of BCRP-mediated OTA efflux (human BCRP; 300 nM OTA) |
| --- | --- | --- | --- | --- | --- | --- | --- | --- | --- | --- |
| O=c1cc(-c2ccc(O)c(O)c2)oc2cc(O)cc(O)c12 [luteolin] | 22 | 72 | 0.28 fold of vehicle control | 64 | 0.36 fold of vehicle control | 0.7 fold of vehicle control |  |  |  |  |
| O=c1c(O)c(-c2cc(O)c(O)c(O)c2)oc2cc(O)cc(O)c12 [myricetin] | 425 |  | 0.73 fold of vehicle control |  | 0.74 fold of vehicle control | 0.82 fold of vehicle control |  |  |  |  |
| quercetin 3-O glucuronide [Miquelianin] |  |  | no significant effects |  | 0.58 fold of vehicle control | no significant effects | no appreciable inhibition or activation |  |  |  |
| O=C(O[C@@H]1Cc2c(O)cc(O)cc2O[C@@H]1c1ccc(O)c(O)c1)c1cc(O)c(O)c(O)c1 [ECG, (-)-Epicatechin-3-O-gallate] |  |  | did not significantly inhibit |  | did not significantly inhibit | did not significantly inhibit |  | 495 |  |  |
| O=C(O)/C=C/c1ccc(O)c(O)c1 [caffeic acid] |  |  | did not significantly inhibit |  | did not significantly inhibit | did not significantly inhibit |  |  | 714 | around 2 fold of control |
